These results are taken from PubChem BioAssay AID248 (DTP/NCI, 2004).

Values joined by “and” are separate entries in the source; they are usually repeats but may differ in a detail not shown here. Identical values can stand only once. Toxic doses and inconclusive results are not listed.

This experiment has as its system L1210 leukemia ip in BDF1 mice, survival T/C. The experiment in a line: NCI In Vivo Anticancer Drug Screen. Data for tumor model L1210 Leukemia (intraperitoneal) in B6D2F1 (BDF1) mice. The note with it: endpoint: mean survival time, higher = longer survival. Summed up:
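Antitumor effect is assessed in tumor-bearing animals. Survival in the compound arm is compared with a vehicle-dosed control arm and expressed as their quotient.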

The mark [1] stands for this setting: dose: 100.0 mg/kg/injection, schedule: Q01DX009 (ip), vehicle: saline with Tween-80.
Setting [2] is: dose: 200.0 mg/kg/injection, schedule: Q01DX009 (ip), vehicle: saline with Tween-80.
Where [3] appears, read: dose: 400.0 mg/kg/injection, schedule: Q01DX009 (ip), vehicle: saline with Tween-80.
Setting [4] is: dose: 200.0 mg/kg/injection, schedule: Q04DX003 (ip), vehicle: saline with Tween-80.
The mark [5] stands for this setting: dose: 100.0 mg/kg/injection, schedule: Q01DX009 (ip), vehicle: saline.
Where [6] appears, read: dose: 200.0 mg/kg/injection, schedule: Q01DX009 (ip), vehicle: saline.
[7] abbreviates: dose: 400.0 mg/kg/injection, schedule: Q01DX009 (ip), vehicle: saline.
The mark [8] stands for this setting: dose: 300.0 mg/kg/injection, schedule: Q04DX003 (ip), vehicle: Klucel (hydroxypropylcellulose) (HPC).
Where [9] appears, read: dose: 100.0 mg/kg/injection, schedule: Q01DX001 (ip), vehicle: carboxymethylcellulose (CMC).
Setting [10] is: dose: 200.0 mg/kg/injection, schedule: Q01DX001 (ip), vehicle: carboxymethylcellulose (CMC).
The mark [11] stands for this setting: dose: 400.0 mg/kg/injection, schedule: Q01DX001 (ip), vehicle: carboxymethylcellulose (CMC).

Turning to `CCCC#CC(=O)OCCCCCC`, the T/C was 96 % of control (dose: 100.0 mg/kg/injection, schedule: Q04DX002 (ip), vehicle: saline); 111 % of control (dose: 200.0 mg/kg/injection, schedule: Q04DX002 (ip), vehicle: saline); 103 % of control (dose: 400.0 mg/kg/injection, schedule: Q04DX002 (ip), vehicle: saline).

Regarding `Cc1cc2cc(C)c3cccc(C)c3c2c2c(C)cccc12`, the T/C is 102 % of control (dose: 100.0 mg/kg/injection, schedule: Q01DX009 (ip), vehicle: Klucel (hydroxypropylcellulose) (HPC)); 95 % of control (dose: 100.0 mg/kg/injection, schedule: Q04DX003 (ip), vehicle: other); 106 % of control (dose: 200.0 mg/kg/injection, schedule: Q01DX009 (ip), vehicle: Klucel (hydroxypropylcellulose) (HPC)); 97 % of control (dose: 200.0 mg/kg/injection, schedule: Q04DX003 (ip), vehicle: other); 96 % of control (dose: 400.0 mg/kg/injection, schedule: Q01DX009 (ip), vehicle: Klucel (hydroxypropylcellulose) (HPC)); 90 % of control (dose: 400.0 mg/kg/injection, schedule: Q04DX003 (ip), vehicle: other).

Take `CCCCOc1cc([N+](=O)[O-])ccc1CO`: the T/C was 109 % of control under setting [1], 98 % of control under setting [2] and 98 % of control under setting [3].

For the compound `C(=NCCN=Cc1ccccc1)c1ccccc1`, the T/C is, setting by setting: (dose: 100.0 mg/kg/injection, schedule: Q04DX003 (ip), vehicle: saline with Tween-80) 101 % of control; under setting [4], 95 % of control; (dose: 400.0 mg/kg/injection, schedule: Q04DX003 (ip), vehicle: saline with Tween-80) 111 % of control.

On to `COc1cc([N+](=O)[O-])c(C)cc1NC(=O)c1ccc(OC)c(OC)c1`, for which the T/C by setting is: (dose: 50.0 mg/kg/injection, schedule: Q01DX009 (ip), vehicle: saline) 97 % of control; under setting [5], 96 % of control; (dose: 100.0 mg/kg/injection, schedule: Q04DX003 (ip), vehicle: saline) 89 % of control; under setting [6], 96 % of control; (dose: 200.0 mg/kg/injection, schedule: Q04DX003 (ip), vehicle: saline) 93 % of control; under setting [7], 97 % of control. Also, the T/C (dose: 400.0 mg/kg/injection, schedule: Q04DX003 (ip), vehicle: saline) was 91 % of control.

On to `CCOC(=O)C(C)P(=O)(OCC)OCC` (stereo not given), for which the T/C runs as follows: under setting [5], 112 % of control; under setting [6], 104 % of control; under setting [7], 109 % of control.

Consider `CCC(=O)OC(OC(=O)CC)c1cccc2ccccc12`, for which the T/C is, setting by setting: (dose: 222.0 mg/kg/injection, schedule: Q01DX Z (ip), vehicle: saline) 90 % of control; (dose: 333.0 mg/kg/injection, schedule: Q01DX Z (ip), vehicle: saline) 86 % of control; (dose: 500.0 mg/kg/injection, schedule: Q01DX Z (ip), vehicle: saline) 95 % of control.

As for `C[N+](C)(C)CCCCCCCCCC[N+](C)(C)C`, the T/C reads like this: (dose: 0.39 mg/kg/injection, schedule: Q04DX003 (ip), vehicle: saline with Tween-80) 99 % of control; (dose: 0.78 mg/kg/injection, schedule: Q04DX003 (ip), vehicle: saline with Tween-80) 95 % of control; (dose: 1.56 mg/kg/injection, schedule: Q04DX003 (ip), vehicle: saline with Tween-80) 92 % of control.

On to `COc1ccc(/C=N/NC(=O)c2ccc(N=NN(C)C)cc2)c(OC)c1`, for which the T/C reads like this: (dose: 75.0 mg/kg/injection, schedule: Q04DX003 (ip), vehicle: Klucel (hydroxypropylcellulose) (HPC)) 104 % of control; (dose: 150.0 mg/kg/injection, schedule: Q04DX003 (ip), vehicle: Klucel (hydroxypropylcellulose) (HPC)) 97 % of control; under setting [8], 99 % of control.

Consider `COc1ccccc1CN1CCCN(Cc2ccccc2OC)C1`, for which the T/C is 97 % of control under setting [9], 105 % of control under setting [10] and 97 % of control under setting [11].

With `CC(=O)OCC(COC(C)=O)OC(C)=O`, the T/C by setting is: (dose: 100.0 mg/kg/injection, schedule: Q04DX002 (ip), vehicle: other) 98 % of control; (dose: 200.0 mg/kg/injection, schedule: Q04DX002 (ip), vehicle: other) 98 % of control; (dose: 400.0 mg/kg/injection, schedule: Q04DX002 (ip), vehicle: other) 103 % of control.

Take `CCSc1nc(Cl)cc(Sc2nc(N)nc3nc[nH]c23)n1`: the T/C reads like this: (dose: 10.0 mg/kg/injection, schedule: Q01DX009 (ip), vehicle: saline) 104 % of control; (dose: 12.0 mg/kg/injection, schedule: Q01DX001 (ip), vehicle: saline) 100 % of control; (dose: 15.0 mg/kg/injection, schedule: Q04DX003 (ip), vehicle: saline) 116 % of control; (dose: 19.0 mg/kg/injection, schedule: Q01DX001 (ip), vehicle: saline) 119 % of control; (dose: 20.0 mg/kg/injection, schedule: Q01DX009 (ip), vehicle: saline) 115 % of control; (dose: 30.0 mg/kg/injection, schedule: Q04DX003 (ip), vehicle: saline) 122 % of control. In addition, the T/C reads like this: (dose: 45.0 mg/kg/injection, schedule: Q01DX001 (ip), vehicle: saline) 123 % of control; (dose: 50.0 mg/kg/injection, schedule: Q04DX003 (ip), vehicle: saline) 118 % of control; (dose: 66.0 mg/kg/injection, schedule: Q01DX001 (ip), vehicle: saline) 114 % of control and 123 % of control; under setting [5], 156 % of control; (dose: 100.0 mg/kg/injection, schedule: Q01DX Z (ip), vehicle: methylcellulose (MC)) 115 % of control; (dose: 120.0 mg/kg/injection, schedule: Q04DX003 (ip), vehicle: saline) 151 % of control. Further, the T/C is 175 % of control (dose: 132.0 mg/kg/injection, schedule: Q04DX003 (ip), vehicle: saline with Tween-80); 100 % of control (dose: 200.0 mg/kg/injection, schedule: Q01DX001 (ip), vehicle: saline); 122 % of control (dose: 200.0 mg/kg/injection, schedule: Q01DX Z (ip), vehicle: methylcellulose (MC)); 158 % of control (dose: 200.0 mg/kg/injection, schedule: Q04DX003 (ip), vehicle: Klucel (hydroxypropylcellulose) (HPC)); 200 % of control under setting [4]; 193 % of control (dose: 240.0 mg/kg/injection, schedule: Q01DX001 (ip), vehicle: saline). For the same compound, the T/C is, setting by setting: (dose: 240.0 mg/kg/injection, schedule: Q04DX003 (ip), vehicle: saline) 204 % of control; under setting [8], 168 % of control; (dose: 300.0 mg/kg/injection, schedule: Q04DX003 (ip), vehicle: saline with Tween-80) 180 % of control; (dose: 360.0 mg/kg/injection, schedule: Q01DX001 (ip), vehicle: saline) 205 % of control; (dose: 360.0 mg/kg/injection, schedule: Q04DX003 (ip), vehicle: saline) 188 % of control; under setting [7], 108 % of control. Moreover, the T/C (dose: 400.0 mg/kg/injection, schedule: Q01DX Z (ip), vehicle: carboxymethylcellulose (CMC)) is 102 % of control; the T/C (dose: 600.0 mg/kg/injection, schedule: Q01DX009 (ip), vehicle: saline) was 121 % of control; the T/C (dose: 800.0 mg/kg/injection, schedule: Q01DX Z (ip), vehicle: carboxymethylcellulose (CMC)) is 90 % of control; the T/C (dose: 810.0 mg/kg/injection, schedule: Q01DX001 (ip), vehicle: saline) is 124 % of control; the T/C (dose: 810.0 mg/kg/injection, schedule: Q04DX003 (ip), vehicle: saline) was 119 % of control.

On to `CCCCC(C#N)C1CC=CC(C(=O)O)C1` (stereo not given), for which the T/C by setting is: under setting [9], 101 % of control; under setting [10], 92 % of control; under setting [11], 97 % of control.

Take `c1ccc2c3c(cc(C4CCCC4)c2c1)CCCC3`: the T/C under setting [9] was 88 % of control and the T/C under setting [10] was 91 % of control.

As to `Cc1ccc(C(=O)c2ccccc2C(=O)O)cc1C`, the T/C runs as follows: under setting [1], 90 % of control; (dose: 100.0 mg/kg/injection, schedule: Q04DX002 (ip), vehicle: saline with Tween-80) 93 % of control; under setting [2], 93 % of control; (dose: 200.0 mg/kg/injection, schedule: Q04DX002 (ip), vehicle: saline with Tween-80) 114 % of control; under setting [3], 87 % of control; (dose: 400.0 mg/kg/injection, schedule: Q04DX002 (ip), vehicle: saline with Tween-80) 101 % of control.
